Measurements published in patent US6972319B1, “Pituitary adenylate cyclase activating peptide (PACAP)receptor 3 (R3) agonists and their pharmacological methods of use” (priority 1999, dated 2005).
No end group written: not given here.

Tests used:
[1] = target: T1, PACAP-R2 (Homo sapiens, UniProt P32241); experiment: Cyclic AMP SPA on CHO cells transfected with PACAP-R2; assay type: cell-based; conditions: cAMP SPA, concentration at which 50% of maximum PACAP27 activity is achieved, NA = no detectable activities, read-out: R2 EC50
T1 construct: expressed in transfected cells; host or cells: CHO cells
T1 sequence (P32241 31-457): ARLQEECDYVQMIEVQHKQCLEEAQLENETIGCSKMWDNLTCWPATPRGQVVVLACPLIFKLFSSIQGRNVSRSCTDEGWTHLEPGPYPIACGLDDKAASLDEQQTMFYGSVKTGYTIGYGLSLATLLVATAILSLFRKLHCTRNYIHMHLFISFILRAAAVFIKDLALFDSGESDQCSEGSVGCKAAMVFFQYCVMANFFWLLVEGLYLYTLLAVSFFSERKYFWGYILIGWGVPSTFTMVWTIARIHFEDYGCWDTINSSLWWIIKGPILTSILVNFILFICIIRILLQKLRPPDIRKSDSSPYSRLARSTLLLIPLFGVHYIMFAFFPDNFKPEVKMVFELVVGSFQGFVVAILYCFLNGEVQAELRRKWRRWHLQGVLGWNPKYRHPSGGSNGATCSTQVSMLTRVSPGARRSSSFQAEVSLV
Outline: (§1)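 Potency reflects cyclic AMP accumulation, determined by SPA, after a 15 min, 37 C peptide exposure of CHO cells carrying the human receptor. Values are expressed relative to the maximal PACAP27 effect, with EC50 taken at its 50% level.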

[2] = target: T2, PACAP-R3 (Homo sapiens, UniProt P41587); experiment: Cyclic AMP SPA on CHO cells expressing PACAP R3; assay type: cell-based; parameters: expressed in transfected cells; host or cells: CHO cells (Geneticin selection); conditions: for EC50: cAMP SPA, CHO cells transfected with PACAP-R3, concentration at which 50% of maximum PACAP27 activity is achieved, NA = no detectable activities, read-out: R3 EC50; for R3 Selectivity: ratio of EC50 at R2 versus EC50 at R3
T2 sequence (P41587 24-438): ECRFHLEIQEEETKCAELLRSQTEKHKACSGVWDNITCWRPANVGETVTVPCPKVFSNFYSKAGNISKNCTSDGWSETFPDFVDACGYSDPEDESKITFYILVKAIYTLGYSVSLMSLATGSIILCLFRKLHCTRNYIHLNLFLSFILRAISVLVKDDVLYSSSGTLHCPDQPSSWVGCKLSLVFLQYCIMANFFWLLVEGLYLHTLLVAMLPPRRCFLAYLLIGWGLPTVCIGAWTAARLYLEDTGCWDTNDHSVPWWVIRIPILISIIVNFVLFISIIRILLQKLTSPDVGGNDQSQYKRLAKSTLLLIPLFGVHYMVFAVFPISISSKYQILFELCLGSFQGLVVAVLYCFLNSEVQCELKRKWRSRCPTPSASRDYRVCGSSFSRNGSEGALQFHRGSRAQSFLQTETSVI
Outline: as §1

| Sequence | EC50 [1] | EC50 [2] | R3 Selectivity [2] |
| --- | --- | --- | --- |
| HSDAVFTDNYTRLRKQMAAKKYLNSIKKK [Peptide R3P54] | > 100 nM | 0.5 nM | >200 |
| HSDAVFTDNYTRLRKQMAAKKYLNSIKKKR [Peptide R3P53] | 500 nM | 0.2 nM | 2500 |
| HSDAVFTDNYTRLRKQMAAKKYLNSIKKKRY [Peptide R3P52] | > 100 nM | 0.4 nM | >250 |
| HSDAVFTDNYTRLRKQMAAKKYLNSIKN [Peptide R3P49] | 8 nM | 0.27 nM | 30 |
| HSDAVFTDNYTRLRKQMAAKKYLNSIKNDR [Peptide R3P136] | 20 nM | 0.3 nM | 70 |
| HSDAVFTDNYTRLRKQMAAKKYLNSIKNER [Peptide R3P137] | 30 nM | 0.3 nM | 100 |
| HSDAVFTDNYTRLRKQMAAKKYLNSIKNGR [Peptide R3P139] | 20 nM | 0.4 nM | 50 |
| HSDAVFTDNYTRLRKQMAAKKYLNSIKNHR [Peptide R3P140] | 15 nM | 0.3 nM | 50 |
| HSDAVFTDNYTRLRKQMAAKKYLNSIKNIR [Peptide R3P141] | 20 nM | 0.2 nM | 100 |
| HSDAVFTDNYTRLRKQMAAKKYLNSIKNKA [Peptide R3P153] | 40 nM | 0.2 nM | 200 |
| HSDAVFTDNYTRLRKQMAAKKYLNSIKNKE [Peptide R3P156] | 100 nM | 1 nM | 100 |
| HSDAVFTDNYTRLRKQMAAKKYLNSIKNKF [Peptide R3P157] | 50 nM | 0.3 nM | 170 |
| HSDAVFTDNYTRLRKQMAAKKYLNSIKNKG [Peptide R3P158] | 6 nM | 0.07 nM | 90 |
| HSDAVFTDNYTRLRKQMAAKKYLNSIKNKI [Peptide R3P160] | 100 nM | 0.2 nM | 500 |
| HSDAVFTDNYTRLRKQMAAKKYLNSIKNKK [Peptide R3P161] | 60 nM | 0.2 nM | 300 |
| HSDAVFTDNYTRLRKQMAAKKYLNSIKNKN [Peptide R3P164] | 100 nM | 0.3 nM | 300 |
| HSDAVFTDNYTRLRKQMAAKKYLNSIKNKP [Peptide R3P165] | 150 nM | 0.5 nM | 300 |
| HSDAVFTDNYTRLRKQMAAKKYLNSIKNKR [Peptide R3P65] | 80 nM | 0.6 nM | 130 |
| HSDAVFTDNYTRLRKQMAAKKYLNSIKNKT [Peptide R3P168] | 60 nM | 0.2 nM | 300 |
| HSDAVFTDNYTRLRKQMAAKKYLNSIKNKV [Peptide R3P169] | 60 nM | 0.2 nM | 300 |
| HSDAVFTDNYTRLRKQMAAKKYLNSIKNLR [Peptide R3P142] | 6 nM | 0.2 nM | 30 |
| HSDAVFTDNYTRLRKQMAAKKYLNSIKNMR [Peptide R3P143] | 6 nM | 0.2 nM | 30 |
| HSDAVFTDNYTRLRKQMAAKKYLNSIKNNR [Peptide R3P144] | 300 nM | 3 nM | 100 |
| HSDAVFTDNYTRLRKQMAAKKYLNSIKNPR [Peptide R3P145] | 50 nM | 0.5 nM | 100 |
| HSDAVFTDNYTRLRKQMAAKKYLNSIKNQR [Peptide R3P146] | 30 nM | 0.3 nM | 100 |
| HSDAVFTDNYTRLRKQMAAKKYLNSIKNRI [rR3P174] | 18 nM | 0.2 nM | 90 |
| HSDAVFTDNYTRLRKQMAAKKYLNSIKNRR [Peptide R3P147] | 100 nM | 0.2 nM | 500 |
| HSDAVFTDNYTRLRKQMAAKKYLNSIKNSR [Peptide R3P148] | 30 nM | 0.3 nM | 100 |
